From patent publication US9144594B2, “Cathepsin L mediated diseases and associated methods and products” (University of Miami, priority 2005, dated 2015)
“Also recorded” adds a separate entry of the source. Where a SMILES comes first, the peptide text is derived from it. The star is where a group is joined. Cbz = O=C(OCc1ccccc1)*; CH2F = FC*

Legend:
[1] = test system: LPS-induced proteinuria; assay: LPS-induced proteinuria in mice treated with inhibitors, albuminuria by gel quantification; assay type: in vivo, mouse; conditions: FIG. 29A
Experimental: Proteinuria was induced in male B6 mice (n=5 per group) by LPS injection. The mice were injected the mice with 250 μg ultrapure LPS (InvivoGen) intraperitoneally (i.p.) and started treatment with 200 μg cathepsin L inhibitor VI (Calbiochem) 30 min after disease induction. The LPS and inhibitor injections were repeated at 24 h and the mice were sacrificed at 48 h.
To quantify the level of proteinuria, urine was diluted with double-distilled water, boiled the diluted urine in sample buffer and analyzed the samples by NuPAGE (Invitrogen) followed by Coomassie blue staining BSA standards (from 0.125 to 2.0 μg) were run on the same gel and were used to identify and quantify urinary albumin bands. The albumin bands were quantified with ImageJ software (NIH) and determined the creatinine abundance from the same urine samples with a commercial kit (Cayman Chemical) according to the manufacturer's protocol.

[2] = test system: CatL-mediated degradation of synaptopodin; assay: Western blot of isolated glomeruli, LPS-induced degradation of synaptopodin and RhoA; assay type: in vivo, mouse; conditions: FIG. 29B
Source text: FIG. 29A: SDS-PAGE analysis of urines from control and LPS-injected mice (top). Quantitative analysis of albuminuria (bottom). FIG. 29B: Western blot analysis of isolated glomeruli showing that LPS causes the degradation of endogenous synaptopodin and RhoA.

[3] = test system: cathepsin L; assay: Generation of dynamin p40 fragment in LPS-treated cultured podocytes (Western blot); assay type: cell-based, mouse; conditions: LPS-treated podocytes expressing dynWT
Source text: Next, it was examined whether cathepsin L could process dynamin in vivo, and whether this processing required GTP binding by dynamin. To this end, cultured podocytes were infected with adenoviruses expressing dynWT as well as different dynamin mutants. Infected podocytes were subsequently treated with LPS. LPS treatment increases cathepsin L presence and the activity in the cytosol (FIG. 3), and thus is expected to induce generation of the 40 kD proteolytic fragment. Respective cytosols were probed using the GTPase antibodies in order to detect N-terminal 40 kD proteolytic fragment. Expression of dynWT in podocytes treated with LPS identified proteolytic fragments that traveled with the same mobility as fragments observed in vitro. […] Furthermore, significant amount of p40 was present in cells expressing dynR725A prior to LPS treatment. […] Given complete protection of cathepsin L cleavage by GTPγS, it was reasoned that LPS treatment was somehow inducing dynR725A self-assembly, which in turn was protecting dynR725A from cathepsin L cleavage. This in turn would explain ability of dynR725A to counteract LPS and PAN treatment (FIG. 1D). […] Biochemical difference between dynWT, dynK694A and dynR725A is that only dynR725A is impaired in the rate of GTP-hydrolysis of assembled dynamin. This is important because GTP-hydrolysis drives disassemble of dynamin. Thus, while all three dynamins are predicted to self-assemble by LPS treatment, only dynR725A will stay assembled due to its inability to hydrolyze GTP. Once assembled dynWT and dynK694A hydrolyze GTP they will fall apart and thus become accessible for cathepsin L cleavage.
To explore CatL-mediated dynamin cleavage in vivo, cultured podocytes were infected with adenoviruses encoding different dynamin mutants and subsequently treated with LPS (FIG. 19G). […] To confirm the identity of the cleavage site, the ELSGGA (SEQ ID NO.29) sequence was mutated to EQSVGA (SEQ ID NO.31) (for simplicity, the mutant is subsequently referred to as dynL356Q). […] Finally, a GTPase-defective dynamin mutant was examined. Dynamin carrying a mutation in its […] (dynR725A) oligomerizes, but is impaired in assembly-stimulated GTP-hydrolysis. DynR725A is therefore predicted to live longer in the assembled state.
Podocytes were grown under non-permissive conditions to 70% confluence. Cells were washed twice with 1×PBS and infected with 1.2 ml of serum-free DMEM media containing 100 μl transactivator virus, 100 μl virus expressing dyn1 or dyn2. After 2 h of infection at 37° C., media containing virus was replaced with full DMEM. If cells were treated with LPS or PAN, 50 μg/ml of LPS or 50 μg/ml PAN was added at this point. 18-24 h post-infection, cells were detached using trypsin and processed either for subcellular fractionation or tested in the motility assays as described in (Reiser et al., J Biol Chem 279, 34827-34832 (2004)). When stated, 20 μM of Z-FF-FMK CatL specific inhibitor (Calbiochem, San Diego, Calif.) was added simultaneously with addition of LPS.

[4] = test system: CatL; assay: Cathepsin activity in LPS-treated podocytes with fluorogenic substrate CV-(FR)2; assay type: cell-based, mouse; conditions: after LPS administration
Source text: (§1) Finally, it was examined whether CatL can be enzymatically active in the cytosol. Subcellular sites of CatL and CatB activity were visualized by a fluorogenic substrate, CV-(FR)2, which emits light upon cleavage by CatL. In untreated podocytes, protease activity was low and confined to perinuclear lysosomes (FIG. 17F).

[5] = biological target: T1, CatB (Mus musculus, UniProt P10605); assay: Cathepsin activity in podocytes with fluorogenic substrate CV-(FR)2, CatB; assay type: cell-based
T1 construct: endogenous in cells; host or cells: cultured mouse podocytes
T1 sequence (P10605 80-333): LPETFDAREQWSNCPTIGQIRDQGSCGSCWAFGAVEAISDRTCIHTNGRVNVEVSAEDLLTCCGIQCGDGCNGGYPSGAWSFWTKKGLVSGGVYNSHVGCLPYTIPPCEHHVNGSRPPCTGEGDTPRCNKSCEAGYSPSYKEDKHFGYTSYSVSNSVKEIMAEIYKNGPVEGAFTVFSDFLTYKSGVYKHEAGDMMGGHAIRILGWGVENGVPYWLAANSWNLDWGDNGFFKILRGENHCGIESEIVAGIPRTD
Source text: as §1

inhibition of CatB, in words [5]	SMILES	LPS-induced proteinuria (albuminuria), in words [1]	LPS-induced degradation of synaptopodin and RhoA, in words [2]	dynamin cleavage / p40 generation with inhibitor, in words [3]	extralysosomal cathepsin activity, in words [4]
	CC(C)C[C@H](NC(=O)[C@H]1O[C@@H]1C(=O)O)C(=O)NCCCCN=C(N)N [E64]	ameliorate LPS-induced proteinuria	block the LPS-induced degradation of synaptopodin and RhoA	cleavage could be blocked	
does not inhibit CatB	O=C(NC(Cc1ccccc1)C(=O)NC(Cc1ccccc1)C(=O)CF)OCc1ccccc1 (stereo not drawn) [Z-FF-FMK, Z-Phe-Phe-fluoromethyl ketone, reference compound] (Cbz-Phe-Phe-CH2F; configuration not given here)			resulted specifically in the loss of p40; also recorded: inhibited	vast majority of extralysosomal cathepsin activity after LPS administration was sensitive
